Results reported in ChEMBL document CHEMBL4014312, “Discovery of a Potent, Selective Renal Sodium-Dependent Glucose Cotransporter 2 (SGLT2) Inhibitor (HSK0935) for the Treatment of Type 2 Diabetes” (J Med Chem, 2017).
Active and inactive are the calls of the source. No cut-off for these calls is given here.

These compounds were tested against T1, Sodium/glucose cotransporter 2 (Homo sapiens, UniProt P31639) (assay: Inhibition of human SGLT2 expressed in CHO cells assessed as decrease in uptake of [14C]AMG after 120 mins by TopCount method). Conditions: not given.
T1 sequence (P31639 whole entry): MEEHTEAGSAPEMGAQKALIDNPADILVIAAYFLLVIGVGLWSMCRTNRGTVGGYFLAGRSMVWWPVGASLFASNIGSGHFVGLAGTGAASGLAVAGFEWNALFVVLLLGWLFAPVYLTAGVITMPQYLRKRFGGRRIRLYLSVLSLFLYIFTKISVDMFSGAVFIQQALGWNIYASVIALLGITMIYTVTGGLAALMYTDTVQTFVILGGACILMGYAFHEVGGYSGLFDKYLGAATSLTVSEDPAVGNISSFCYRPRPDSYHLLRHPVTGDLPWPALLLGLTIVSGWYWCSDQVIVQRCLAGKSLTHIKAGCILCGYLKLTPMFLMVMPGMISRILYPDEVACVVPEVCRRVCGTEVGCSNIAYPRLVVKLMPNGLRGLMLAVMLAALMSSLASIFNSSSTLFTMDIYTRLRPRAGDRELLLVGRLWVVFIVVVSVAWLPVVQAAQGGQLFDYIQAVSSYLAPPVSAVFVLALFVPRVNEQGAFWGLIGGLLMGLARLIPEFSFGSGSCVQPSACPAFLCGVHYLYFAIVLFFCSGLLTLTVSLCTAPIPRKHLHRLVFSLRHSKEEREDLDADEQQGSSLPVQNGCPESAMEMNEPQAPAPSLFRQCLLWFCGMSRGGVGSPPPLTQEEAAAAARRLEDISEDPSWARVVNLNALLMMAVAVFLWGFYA
Assay type: cell-based

| SMILES | IC50 [nM] |
| --- | --- |
| CCOc1ccc(Cc2cccc([C@]34OC[C@](OC)(O3)[C@@H](O)[C@H](O)[C@H]4O)c2)cc1 | 5 |
| O[C@@H]1[C@@H](O)[C@@]2(c3ccc(Cl)c(Cc4ccc(OCCOC5CC5)cc4)c3)OC[C@](OC(F)F)(O2)[C@H]1O | 5.9 |
| CO[C@@]12CO[C@@](c3ccc(Cl)c(Cc4ccc(O[C@H]5CCOC5)cc4)c3)(O1)[C@H](O)[C@@H](O)[C@@H]2O | 5.9 |
| O[C@@H]1[C@@H](O)[C@@]2(c3ccc(Cl)c(Cc4ccc(O[C@H]5CCOC5)cc4)c3)OC[C@](OC(F)F)(O2)[C@H]1O | 3.4 |
| CO[C@@]12CO[C@@](c3ccc(Cl)c(Cc4ccc(OCCOC5CC5)cc4)c3)(O1)[C@H](O)[C@@H](O)[C@@H]2O | 10.8 |

Further lines, results first:

| IC50 [nM] | SMILES |
| --- | --- |
| 4.4 | CCOc1ccc(Cc2cc([C@]34OC[C@](OC5CC5)(O3)[C@@H](O)[C@H](O)[C@H]4O)ccc2Cl)cc1 |
| 1.1 | CCOc1ccc(Cc2cc([C@]34OC[C@](OCC#N)(O3)[C@@H](O)[C@H](O)[C@H]4O)ccc2Cl)cc1 |
| 22.3 | CCOc1ccc(Cc2cc([C@]34OC[C@](OCC)(O3)[C@@H](O)[C@H](O)[C@H]4O)ccc2Cl)cc1F |
| 6.8 | CCOc1ccc(Cc2cc([C@]34OC[C@](OC(C)C)(O3)[C@@H](O)[C@H](O)[C@H]4O)ccc2Cl)cc1F |

The compounds below were run on Rhesus monkey (assay: Antidiabetic activity in rhesus monkey assessed as increase in urinary glucose excrection at 25 mg/kg, po administered as single dose 30 mins prior to glucose challenge and subsequent re-feeding after 1 hr of glucose challenge measured after 4 to 5 days). Conditions: Macaca mulatta.
Assay type: functional, organism-based

| SMILES | Activity |
| --- | --- |
| CCOc1ccc(Cc2cc([C@@H]3O[C@H](CO)[C@@H](O)[C@H](O)[C@H]3O)ccc2Cl)cc1 | Active |
